Laboratory results taken from patent publication US10040788B2, “1,3,4-thiadiazole compounds and their use in treating cancer” (AstraZeneca AB, priority 2014, dated 2018).
Where two headings read alike, the source gives them in different places.

Assays:
NCI-H1703 cells = assay: GLS Cell Proliferation Assay (NCI-H1703); type: cell-based, human
Excerpt: (§1) The following assays were used to measure the effects of the compounds of the present invention: a) GLS Enzyme Potency Assay; b) GLS Cell Potency Assay; c) GLS Cell Proliferation Assay; and d) Mouse Xenograft Model. During the description of the assays, generally: • i. The following abbreviations have been used: CO2=Carbon dioxide; DMEM=Dulbecco's Modified Eagle Medium; DMSO=Dimethyl sulphoxide; EDTA=Ethylenediaminetetraacetic acid; EGTA=Ethylene glycol tetraacetic acid; FCS=Foetal calf serum; h=Hour(s); NBS=Non-binding surface; SDS=Sodium dodecyl sulphate; r.t.=room temperature; TRIS=Tris(Hydroxymethyl)aminomethane. • ii. […]
The ability of compounds to inhibit cell growth was measured using a 384 well plate NCI-H1703 cell proliferation assay. NCI-H1703 cells were grown in phenol red free RPMI1640, 10% FCS and 2 mM glutamine and seeded at a density of 750 cells per well in 40 μl of growth medium into clear-bottom 384 well assay plates (Corning product code 3712) and incubated for 24 h at 37° C., 5% CO2. […] DMSO concentration was maintained at 0.3% by back filling with DMSO solution. Plates were incubated for 5 days at 37° C., 5% CO2, Sytox Green and Saponin added to final concentration of 2 μM and 0.25% respectively and incubated for 6 h prior to analysis. Plates were read on an Acumen eX3 (TTP Labtech) using 488 nm excitation and FITC filter set (500-530 nm) for emission. IC50 values were calculated by curve fitting to max inhibition of day zero growth using GeneData software analysis.

cellular GLS activity = cellular GLS activity (Homo sapiens (Human), UniProt O94925); assay: GLS Cell Potency Assay (PC3 coupled assay measuring cellular glutamate depletion); type: cell-based; settings: PC3 cells, 6 h incubation, cellular glutamate depletion; geometric mean where repeated; read-out: Assay b) GLS Cell Potency Assay IC50
Excerpt: as §1
Compounds were assessed for their potential to inhibit cellular GLS activity by use of a PC3 coupled assay measuring cellular glutamate depletion. […] DMSO concentration was maintained at 0.3% by back filling with DMSO solution. PC3 cells were grown in phenol free DMEM, 10% dialyzed FCS, 2 mM glutamine and following dispersal by trypsinisation were plated at 5.6×10^3 cells per well in 40 μl of growth medium directly into the 384 well assay plates containing dispensed compound. After incubation for 6 h at 37° C., 5% CO2 growth media was aspirated and cells lysed in 15 μl of buffer containing 10 mM TRIS pH7.4, 100 mM NaCl, 1 mM EDTA, 1 mM EGTA, 1 mM NaF, 20 mM Na4P2O7, 2 mM Na3VO4, 1% Triton X-100, 10% glycerol, 0.1% SDS and 0.5% deoxycholate.

GLS1 = GLS1 (Homo sapiens (Human), UniProt O94925); assay: GLS Enzyme Potency Assay (Glutamate Oxidase/AmplexRed coupled assay); type: biochemical; settings: 6His tagged GLS protein (amino acids 63-669); geometric mean where repeated
Excerpt: The following assays were used to measure the effects of the compounds of the present invention: a) GLS Enzyme Potency Assay; b) GLS Cell Potency Assay; c) GLS Cell Proliferation Assay; and d) Mouse Xenograft Model. During the description of the assays, generally: • i. The following abbreviations have been used: CO2=Carbon dioxide; DMEM=Dulbecco's Modified Eagle Medium; DMSO=Dimethyl sulphoxide; EDTA=Ethylenediaminetetraacetic acid; EGTA=Ethylene glycol tetraacetic acid; FCS=Foetal calf serum; h=Hour(s); NBS=Non-binding surface; SDS=Sodium dodecyl sulphate; r.t.=room temperature; TRIS=Tris(Hydroxymethyl)aminomethane. • ii. IC50 values were calculated using a smart fitting model in Genedata. […] Assay a): GLS Enzyme Potency Assay
A Glutamate Oxidase/AmplexRed coupled assay was used to measure the ability of compounds to bind to and inhibit the activity of GLS1 in vitro. […] GLS1 was diluted to 2× working concentration and incubated at r.t. to allow the tetrameric/dimeric forms to reach steady state. Assay measurements were performed in buffer comprising 50 mM TRIS pH 7.8, 100 mM NaPO4, pH 7.8, 0.001% v/v Tween20. […] DMSO concentration was maintained at 2% by back filling with DMSO solution. […] 3 μL of 100 mM glutamine diluted in assay buffer was then added and the reaction incubated at r.t. for 60 minutes. […] An artefact version of the assay where the 6His tagged GLS protein and glutamine were replaced with assay buffer was also used to rule out non specific effects on the assay components.

[1] = Homo sapiens, 120 h; NCI-H1703 cells, 5 days incubation; geometric mean where repeated; read-out: Assay c) GLS Cell Proliferation Assay

cellular GLS activity, sequence (O94925 55-669): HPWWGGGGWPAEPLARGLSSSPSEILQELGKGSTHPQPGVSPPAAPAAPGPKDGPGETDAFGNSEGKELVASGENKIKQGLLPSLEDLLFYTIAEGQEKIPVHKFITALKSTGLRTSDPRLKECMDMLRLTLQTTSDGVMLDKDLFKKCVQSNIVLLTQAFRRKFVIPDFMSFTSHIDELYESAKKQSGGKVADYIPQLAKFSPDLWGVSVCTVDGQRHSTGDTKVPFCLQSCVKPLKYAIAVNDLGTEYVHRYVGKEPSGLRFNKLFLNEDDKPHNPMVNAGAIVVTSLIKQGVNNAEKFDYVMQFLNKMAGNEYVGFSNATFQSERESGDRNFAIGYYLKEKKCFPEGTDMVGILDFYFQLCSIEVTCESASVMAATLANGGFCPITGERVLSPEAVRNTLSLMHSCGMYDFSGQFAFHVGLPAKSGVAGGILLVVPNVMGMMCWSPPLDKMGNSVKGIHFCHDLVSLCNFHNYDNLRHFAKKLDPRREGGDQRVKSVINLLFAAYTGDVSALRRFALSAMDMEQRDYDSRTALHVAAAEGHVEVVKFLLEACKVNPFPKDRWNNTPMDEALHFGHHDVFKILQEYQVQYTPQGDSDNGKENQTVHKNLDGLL
GLS1, sequence (O94925 63-669): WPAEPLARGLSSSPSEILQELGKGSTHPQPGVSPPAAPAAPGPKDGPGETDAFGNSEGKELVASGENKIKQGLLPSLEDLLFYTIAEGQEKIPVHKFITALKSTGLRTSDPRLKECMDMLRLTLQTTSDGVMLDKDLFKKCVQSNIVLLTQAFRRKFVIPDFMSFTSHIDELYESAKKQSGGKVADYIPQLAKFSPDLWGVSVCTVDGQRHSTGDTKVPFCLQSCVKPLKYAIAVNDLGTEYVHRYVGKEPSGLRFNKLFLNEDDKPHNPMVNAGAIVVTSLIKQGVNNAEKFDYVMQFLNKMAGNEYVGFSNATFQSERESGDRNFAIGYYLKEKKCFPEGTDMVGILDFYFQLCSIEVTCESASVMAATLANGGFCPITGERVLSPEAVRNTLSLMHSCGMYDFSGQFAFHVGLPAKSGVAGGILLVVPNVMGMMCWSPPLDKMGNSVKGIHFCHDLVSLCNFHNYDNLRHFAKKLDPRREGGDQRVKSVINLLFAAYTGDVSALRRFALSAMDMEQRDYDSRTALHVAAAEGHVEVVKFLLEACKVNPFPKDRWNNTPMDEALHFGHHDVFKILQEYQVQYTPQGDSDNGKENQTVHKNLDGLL

IC50 (NCI-H1703 cells; [1])	IC50 (cellular GLS activity)	IC50 (GLS1)	Structure (SMILES)	IC50 (NCI-H1703 cells; NCI-H1703 cells, 5 days incubation; geometric mean where repeated; read-out: Assay c) GLS Cell Proliferation Assay)
16.5 nM	0.559 nM	50.2 nM	CCO[C@H](C(=O)Nc1nnc(N[C@@H]2CCN(c3cccnn3)C2)s1)c1ccc(F)c(OC)c1 [31(a), (2S)-2-ethoxy-2-(4-fluoro-3-methoxy-phenyl)-N-[5-[[(3R)-1-pyridazin-3-ylpyrrolidin-3-yl]amino]-1,3,4-thiadiazol-2-yl]acetamide]	
560 nM	14 nM	170 nM	CCO[C@@H](C(=O)Nc1nnc(N[C@@H]2CCN(c3cccnn3)C2)s1)c1ccc(F)cc1 [Example 13(b), (2R)-2-Ethoxy-2-(4-fluorophenyl)-N-[5-[[(3R)-1-pyridazin-3-ylpyrrolidin-3-yl]amino]-1,3,4-thiadiazol-2-yl]acetamide]	
3.24 nM	0.39 nM	29 nM	CO[C@H](C(=O)Nc1nnc(N[C@@H]2CCN(c3cncnn3)C2)s1)c1ccccc1 [Example 3, (2S)-2-Methoxy-2-phenyl-N-[5-[[(3R)-1-(1,2,4-triazin-6-yl)pyrrolidin-3-yl]amino]-1,3,4-thiadiazol-2-yl]acetamide]	
68.5 nM	1.81 nM	35.4 nM	COc1ccc([C@H](OC)C(=O)Nc2nnc(N[C@@H]3CCN(c4cccnn4)C3)s2)cc1OC [25(a), (2S)-2-(3,4-dimethoxyphenyl)-2-methoxy-N-[5-[[(3R)-1-pyridazin-3-ylpyrrolidin-3-yl]amino]-1,3,4-thiadiazol-2-yl]acetamide]	
518 nM	65 nM	168 nM	COc1cc([C@@H](OC)C(=O)Nc2nnc(N[C@@H]3CCN(c4cccnn4)C3)s2)ccc1F [Example 14(b), (2R)-2-(4-Fluoro-3-methoxy-phenyl)-2-methoxy-N-[5-[[(3R)-1-pyridazin-3-ylpyrrolidin-3-yl]amino]-1,3,4-thiadiazol-2-yl]acetamide]	
624 nM	33.3 nM	86.2 nM	CCO[C@@H](C(=O)Nc1nnc(N[C@@H]2CCN(c3cccnn3)C2)s1)c1ccc(F)c(OC)c1 [31(b), (2R)-2-ethoxy-2-(4-fluoro-3-methoxy-phenyl)-N-[5-[[(3R)-1-pyridazin-3-ylpyrrolidin-3-yl]amino]-1,3,4-thiadiazol-2-yl]acetamide]	

Second part, the molecule before the results:

Structure (SMILES)	IC50 (NCI-H1703 cells; [1])	IC50 (cellular GLS activity)	IC50 (GLS1)	IC50 (NCI-H1703 cells; NCI-H1703 cells, 5 days incubation; geometric mean where repeated; read-out: Assay c) GLS Cell Proliferation Assay)
CO[C@H](C(=O)Nc1nnc(N[C@@H]2CCN(c3nccnn3)C2)s1)c1cccc(OC(F)F)c1 [Example 6(a), (2S)-2-[3-(Difluoromethoxy)phenyl]-2-methoxy-N-[5-[[(3R)-1-(1,2,4-triazin-3-yl)pyrrolidin-3-yl]amino]-1,3,4-thiadiazol-2-yl]acetamide]	16.6 nM	2.57 nM	85.1 nM	
COc1cccc([C@@H](OC)C(=O)Nc2nnc(N[C@@H]3CCN(c4cccnn4)C3)s2)c1 [Example 5(b), (2R)-2-Methoxy-2-(3-methoxyphenyl)-N-[5-[[(3R)-1-pyridazin-3-ylpyrrolidin-3-yl]amino]-1,3,4-thiadiazol-2-yl]acetamide]	53.5 nM	5.3 nM	87.9 nM	
CCO[C@H](C(=O)Nc1nnc(N[C@@H]2CCN(c3cccnn3)C2)s1)c1ccc(F)cc1 [Example 13(a), (2S)-2-Ethoxy-2-(4-fluorophenyl)-N-[5-[[(3R)-1-pyridazin-3-ylpyrrolidin-3-yl]amino]-1,3,4-thiadiazol-2-yl]acetamide]	18.3 nM	0.96 nM	27 nM	
CCO[C@H](C(=O)Nc1nnc(N[C@@H]2CCN(c3nccnn3)C2)s1)c1cccc(OC)c1 [27(a), (2S)-2-ethoxy-2-(3-methoxyphenyl)-N-[5-[[(3R)-1-(1,2,4-triazin-3-yl)pyrrolidin-3-yl]amino]-1,3,4-thiadiazol-2-yl]acetamide]	11.7 nM	2.23 nM	50.8 nM	
CCO[C@@H](C(=O)Nc1nnc(N[C@@H]2CCN(c3nccnn3)C2)s1)c1ccc(F)c(OC)c1 [33(b), (2R)-2-ethoxy-2-(4-fluoro-3-methoxy-phenyl)-N-[5-[[(3R)-1-(1,2,4-triazin-3-yl)pyrrolidin-3-yl]amino]-1,3,4-thiadiazol-2-yl]acetamide]	5540 nM	690 nM	1970 nM	
CO[C@@H](C(=O)Nc1nnc(N[C@@H]2CCN(c3nccnn3)C2)s1)c1cccc(OC(F)F)c1 [Example 6(b), (2R)-2-[3-(Difluoromethoxy)phenyl]-2-methoxy-N-[5-[[(3R)-1-(1,2,4-triazin-3-yl)pyrrolidin-3-yl]amino]-1,3,4-thiadiazol-2-yl]acetamide]	81.7 nM	37 nM	519 nM	
CCO[C@H](C(=O)Nc1nnc(N[C@@H]2CCN(c3nccnn3)C2)s1)c1ccc(OC)cc1 [29(a), (2S)-2-ethoxy-2-(4-methoxyphenyl)-N-[5-[[(3R)-1-(1,2,4-triazin-3-yl)pyrrolidin-3-yl]amino]-1,3,4-thiadiazol-2-yl]acetamide]	125 nM	5.42 nM	108 nM	
CCO[C@@H](C(=O)Nc1nnc(N[C@@H]2CCN(c3nccnn3)C2)s1)c1cccc(OC)c1 [27(b), (2R)-2-ethoxy-2-(3-methoxyphenyl)-N-[5-[[(3R)-1-(1,2,4-triazin-3-yl)pyrrolidin-3-yl]amino]-1,3,4-thiadiazol-2-yl]acetamide]	337 nM	19.5 nM	844 nM	
COc1cccc([C@@H](OC)C(=O)Nc2nnc(N[C@@H]3CCN(c4nccnn4)C3)s2)c1 [Example 4(b), (2R)-2-Methoxy-2-(3-methoxyphenyl)-N-[5-[[(3R)-1-(1,2,4-triazin-3-yl)pyrrolidin-3-yl]amino]-1,3,4-thiadiazol-2-yl]acetamide]	262 nM	76 nM	908 nM	
COc1cccc([C@H](OC)C(=O)Nc2nnc(N[C@@H]3CCN(c4cccnn4)C3)s2)c1 [Example 5(a), (2S)-2-Methoxy-2-(3-methoxyphenyl)-N-[5-[[(3R)-1-pyridazin-3-ylpyrrolidin-3-yl]amino]-1,3,4-thiadiazol-2-yl]acetamide]	3.38 nM	0.19 nM	21.5 nM	
CCO[C@@H](C(=O)Nc1nnc(N[C@@H]2CCN(c3nccnn3)C2)s1)c1ccc(F)cc1 [35(b), (2R)-2-ethoxy-2-(4-fluorophenyl)-N-[5-[[(3R)-1-(1,2,4-triazin-3-yl)pyrrolidin-3-yl]amino]-1,3,4-thiadiazol-2-yl]acetamide]	404 nM	18.7 nM	155 nM	
CO[C@H](C(=O)Nc1nnc(N[C@@H]2CCN(c3cccnn3)C2)s1)c1cccc(OC(F)(F)F)c1 [Example 9(a), (2S)-2-Methoxy-N-[5-[[(3R)-1-pyridazin-3-ylpyrrolidin-3-yl]amino]-1,3,4-thiadiazol-2-yl]-2-[3-(trifluoromethoxy)phenyl]acetamide]	0.725 nM	0.14 nM	18.6 nM	
CO[C@H](C(=O)Nc1nnc(N[C@@H]2CCN(c3nccnn3)C2)s1)c1cccc(OC(F)F)c1 [19(a), (2S)-2-[3-(difluoromethoxy)phenyl]-2-methoxy-N-[5-[[(3R)-1-(1,2,4-triazin-3-yl)pyrrolidin-3-yl]amino]-1,3,4-thiadiazol-2-yl]acetamide]		2.54 nM	85.1 nM	16.6 nM
